Measurements: PMC6971092, “Identification of emulsifier potato peptides by bioinformatics: application to omega-3 delivery emulsions and release from potato industry side streams” (Scientific Reports, 2020)
Residues, ends and D or L forms follow the SMILES beside them. No end group written: not given here.

Columns and labels:
[1] = Solubility of peptides in sodium acetate-imidazole buffer; assay type: physicochemical; parameters: key: Soluble: totally soluble; Cloudy: cloudy: no totally soluble; details: 0.2 wt.% in 10 mM sodium acetate - 10 mM imidazole buffer (pH 7); shaken 2 h at 50 °C and overnight at room temperature; visual
Description: (§1) Emulsions were produced as reported in our previous work[31]. A total amount of 2 g of 5 wt.% fish oil-in-water emulsion stabilized with 0.2 wt.% potato peptides was produced. Peptides (0.2 wt.%) were dissolved in 10 mM sodium acetate – 10 mM imidazole buffer (pH 7). For that, the peptide solutions were shaken (100 rpm) for 2 h in water bath at 50 °C and overnight at room temperature to allow complete solubilization and rehydration of the peptides (when possible). Primary homogenization was done by adding the fish oil to the peptide-buffer solution and mixing at 18,000 rpm for 30 s by using a POLYTRON PT1200E (Kinematic Inc., New York, USA). Secondary homogenization was done using a MICROSON XL2000 sonicator equipped with a P1 probe (Misonix, Inc., New York, USA). Emulsions were homogenized at an amplitude of 75% (maximum amplitude of 180 μm), running 2 passes of 30 s with a break of 1 min between passes. During sonication the emulsions were surrounded by iced water to minimize the increase in temperature. […] All emulsions were produced and tested in triplicate.
Among the 38 peptides tested, 14 peptides were not totally soluble resulting in cloudy aqueous phases (e.g. no transparent solutions were obtained and white peptides particles could be observed). […] Differences in pH are due to the acidic impurities present in the synthetic peptides used, and to the insufficient capacity of the buffer employed to keep pH constant at 7. Nonetheless, sodium acetate-imidazole buffer was preferred to phosphate buffer in order to avoid interferences of phosphate buffer in oxidative stability studies as consequence of its chelating activity.

[2] = Oxidative stability of emulsions by ESR (PBN-lipid spin adducts); details: 5 wt.% fish oil-in-water emulsions; for oxidative stability of emulsion at 20 °C compared to α-10, α-12 and γ-1 (in words): storage at 20 °C; for oxidative stability of emulsion (generation of PBN-lipid spin adducts, in words, Fig. 4): storage 6 days in the dark at both 20 and 37 °C
Description: Oxidative stability of emulsions prepared with selected peptides was studied by electron spin resonance (ESR)[31]. ESR analysis was carried out using a benchtop MINISCOPE MS 5000 ESR spectrometer (MAGNETTECH GMBH, Germany). The instrument settings were as follows: magnetic field 320–360 mT, sweep time 60 s, modulation 0.2 mT and frequency 100 kHz. Emulsions were produced as described in section 2.3.1.2 and PBN was added as an ethanol solution (concentration of 50 mg/mL) to have 30 mM of PBN in the oil phase of the emulsion. The oxidative stability of the emulsions was determined during 6 days storage at 20 or 37 °C and samples were measured at days 0, 1 (only for 37 °C), 2, 4 and 6. For each sampling point, emulsion samples (50 μL) were transferred to borosilicate capillary tubes before they were introduced to the cavity of the ESR. Analyses were performed in triplicate at room temperature.

[3] = pH of peptide-stabilized emulsions; assay type: physicochemical; details: 5 wt.% fish oil-in-water emulsion stabilized with 0.2 wt.% peptide in 10 mM sodium acetate - 10 mM imidazole buffer (pH 7)
Description: as §1
Among the 38 peptides tested, 14 peptides were not totally soluble resulting in cloudy aqueous phases (e.g. no transparent solutions were obtained and white peptides particles could be observed). […]

[4] = Droplet size of emulsions by laser diffraction; assay type: physicochemical; details: mean ± SD, triplicate
Description: as §1
(§2) The droplet size distribution of the emulsions was measured by laser diffraction in a MASTERSIZER 2000 (Malvern Instruments, Ltd., Worcestershire, UK) at days 0, 1, 3 and 6 during storage in dark at room temperature (~22 °C)[31]. Each emulsion was diluted in recirculating water (3000 rpm), until it reached an obscuration of 12%. The refractive indices of sunflower oil (1.469) and water (1.330) were used as particle and dispersant, respectively. Results are given in volume mean diameter (D4,3). Measurements were made in triplicate. Due to the low volume of emulsions produced, creaming was determined qualitatively by observing the appearance of the emulsions. Peptides forming emulsions with small droplet sizes and no creaming were selected for further study.

[5] = Zeta potential of emulsions; assay type: physicochemical; details: 5 wt.% fish oil-in-water emulsion, 0.2 wt.% peptide; after one day of storage; 10 μL emulsion in 5 mL buffer; 25 °C; mean ± SD, triplicate
Description: as §1
The zeta potential of the emulsions was measured after one day of storage in a ZETASIZER NANO ZS (Malvern instruments Ltd., Worcestershire, UK) with a DTS1070 cell at 25 °C[31]. […] The zeta potential range was set to −100 to +50 mV and the samples were analyzed with 100 runs. […]

[6] = Qualitative observation of creaming of emulsions; assay type: physicochemical; parameters: key: 1: no creaming; 2: creaming; 3: oil layer above the emulsion; 4: phase separation
Description: as §1, §2

[7] = Iron (Fe2+) chelating activity; assay type: biochemical; details: 0.2 wt.% at pH 7; data not shown
Description: Peptides were dissolved in 10 mM sodium acetate - 10 mM imidazole buffer (pH 7) at 0.2 wt.%. 1 1,1-Diphenyl-2-picrylhydrazyl (DPPH) radical scavenging activity, iron (Fe^2+) chelating activity and ferric (Fe^3+) reducing power were measured as described elsewhere.

| Compound | Solubility of peptides [1] | further results |
| --- | --- | --- |
| CC(C)C[C@H](NC(=O)[C@H](CS)NC(=O)[C@H](Cc1ccccc1)NC(=O)[C@H](CCC(N)=O)NC(=O)[C@H](CC(=O)O)NC(=O)[C@H](CC(=O)O)NC(=O)[C@H](CO)NC(=O)[C@H](CO)NC(=O)[C@H](Cc1ccccc1)NC(=O)[C@@H]1CCCN1C(=O)[C@@H](N)CS)C(=O)N[C@@H](CCCCN)C(=O)N[C@H](C(=O)NCC(=O)N[C@H](C(=O)O)C(C)C)C(C)C [β-22] (H-CPFSSDDQFCLKVGV-OH) | Soluble | oxidative stability of emulsion at 20 °C compared to α-10, α-12 and γ-1 (in words) [2]: significantly more oxidatively stable |
| CC[C@H](C)[C@H](NC(=O)[C@@H](NC(=O)[C@@H](NC(=O)CNC(=O)[C@@H](NC(=O)[C@H](CCCCN)NC(=O)[C@H](C)NC(=O)[C@H](CS)NC(=O)[C@H](Cc1ccccc1)NC(=O)[C@H](CC(N)=O)NC(=O)[C@H](CC(=O)O)NC(=O)[C@H](CC(=O)O)NC(=O)[C@H](CCCNC(=N)N)NC(=O)[C@@H](N)CS)C(C)C)C(C)C)C(C)C)C(=O)O [γ-34] (H-CRDDNFCAKVGVVI-OH) | Cloudy | – |
| AKDIVPFYFEHGPHIFN [α-14] | Soluble | – |
| DDNFCAKVGVVIQ [β-30] | Cloudy | – |
| DNFCAKVGVVIQNGKRR [γ-44] | Cloudy | – |
| DSPETYEEALKRFAKLLSD [α-12] | Soluble | oxidative stability of emulsion (generation of PBN-lipid spin adducts, in words, Fig. 4) [2]: lowest oxidative stability |
| DTNGKELNPNSSYRIISIGRGALGGDVYL [γ-42] | Cloudy | – |
| EALKRFAKLLSD [α-11] | Soluble | – |
| ELDSRLSYRIISTFWGALGGDVYL [β-21] | Cloudy | – |
| ELDSRLSYRIISTFWGALGGDVYLGKSPN [β-20] | Cloudy | – |
| FAKLLSDRKKLRANK [γ-46] | Soluble | – |
| FCLKVGVIHQNGKRRLALVK [γ-49] | Soluble | oxidative stability of emulsion (generation of PBN-lipid spin adducts, in words, Fig. 4) [2]: highest oxidative stability |
| FCLKVGVVHQNGKRRLALVKDNP [γ-38] | Soluble | oxidative stability of emulsion at 20 °C compared to α-10, α-12 and γ-1 (in words) [2]: significantly more oxidatively stable |
| FDVIGGTSTGGLLTAMITTPNENNRP [γ-36] | Soluble | oxidative stability of emulsion (generation of PBN-lipid spin adducts, in words, Fig. 4) [2]: highest oxidative stability |
| FIPLSTNIFEDQLLNIQFNIPT [β-23] | Cloudy | – |
| GIIPATILEFLEGQLQEVDNN [γ-48] | Soluble | – |
| GIKGIIPAIILEFLEGQLQEVDNNKDAR [γ-1] | Soluble | oxidative stability of emulsion (generation of PBN-lipid spin adducts, in words, Fig. 4) [2]: lowest oxidative stability |
| GKELDPRLSYRI [β-26] | Soluble | – |
| HQNGKRRLALV [γ-39] | Soluble | – |
| IGSSSHFGPHIFEGELLNIQFDIS [β-29] | Cloudy | – |

| Compound | Solubility of peptides [1] | further results |
| --- | --- | --- |
| ILEFLEGQLQEVDN [α-16] | Soluble | – |
| IPATILEFLEGQLQEVDNN [α-15] | Soluble | – |
| KDNPETYEEALKRFAKLLS [γ-41] | Soluble | – |
| KKPVSKDSPETYEEALKRFAKLLSDRKKL [α-10] | Soluble | oxidative stability of emulsion (generation of PBN-lipid spin adducts, in words, Fig. 4) [2]: lowest oxidative stability |
| KYDGKYLMQVLQE [α-17] | Cloudy | – |
| KYLMQVLQEKL [α-19] | Soluble | – |
| KYLMQVLQEKLGE [α-18] | Cloudy | – |
| LGGDVYLGKSPNSDAPCP [β-31] | Soluble | – |
| LLTAMITTPNENNRP [γ-37] | Soluble | – |
| LNIQFNI [β-24] | Cloudy | – |
| LNIQFNIPTPKLC [β-27] | Cloudy | oxidative stability of emulsion (generation of PBN-lipid spin adducts, in words, Fig. 4) [2]: highest oxidative stability |
| NPNSSYRIISI [γ-43] | Soluble | – |
| NRPFAAAKDIVPFYFEHGPHIFN [α-13] | Soluble | – |
| RDDNFCAKVGVVI [γ-35] | Cloudy | – |
| SSDDQFCLKVGVV [γ-40] | Cloudy | oxidative stability of emulsion (generation of PBN-lipid spin adducts, in words, Fig. 4) [2]: highest oxidative stability |
| Sodium caseinate | Soluble | pH of emulsion [3]: 6.9; D4,3 (μm) Day 1 ([4]; as Day 0, day 1 of storage in dark at room temperature (~22 °C)): 1.1 ± 0.2 μm; D4,3 (μm) Day 3 ([4]; as Day 0, day 3 of storage in dark at room temperature (~22 °C)): 0.9 ± 0.2 μm; D4,3 (μm) Day 6 ([4]; as Day 0, day 6 of storage in dark at room temperature (~22 °C)): 1.0 ± 0.2 μm; D4,3 (μm) Day 0 ([4]; volume mean diameter, 5 wt.% fish oil-in-water emulsion, 0.2 wt.% peptide, pH 7 buffer, laser diffraction, day 0): 1.1 ± 0.2 μm; Zeta potential (mV) [5]: −41.5 ± 1.1 mV; Observations Day 0 (creaming) ([6]; appearance of 5 wt.% fish oil-in-water emulsion, 0.2 wt.% peptide, day 0): 1; Observations Day 1 (creaming) ([6]; appearance of emulsion, day 1 of storage at ~22 °C): 1; Observations Day 6 (creaming) ([6]; appearance of emulsion, day 6 of storage at ~22 °C): 1; oxidative stability of emulsion (generation of PBN-lipid spin adducts, in words, Fig. 4) [2]: highest oxidative stability; Fe2+ chelating activity [7]: 98.5 ± 0.2% |
| TPNENNRPFAAAKDIV [γ-47] | Soluble | – |
| VGVVIQNGKRR [γ-45] | Soluble | – |
| VHQNGKRRLALVKDNPLDVSFK [β-28] | Soluble | – |
